Laboratory results published in patent US7795226B2, “Control of radiation injury” (Biotempt B.V., priority 2006, dated 2010).
Values joined by “and” are separate entries in the source; they are usually repeats but may differ in a detail not shown here. Equal entries are not always repeated.

Key:
Type in all cases: in vivo
[1] = tested on: renal ischemia reperfusion in mice; experiment: mouse renal ischemia reperfusion test; set-up: BUN after 25 minutes renal ischemia, mean / Urea levels in dose-response experiment: unit not given here; settings: for mortality at 72 hours post-reperfusion: 5 mg/kg i.v. before and after 25 minutes clamping, dead/total
Experimental: Six oligopeptides (i.e., A: LAGV (SEQ ID NO:121); B: AQGV (SEQ ID NO:120); C: LAG; D: AQG; E: MTR; and F: MTRV (SEO ID NO:119)) were tested and compared with PBS (control) in a double blind animal study for each peptide's relative ability to aid recovery in a mouse renal ischemia reperfusion test. In this test, the mice were anesthetized, and one kidney from each mouse was removed. The other kidney was tied off for 25 minutes, and the serum urea levels were allowed to increase. Both before and after tying off, each of the separate peptides was administered to thirty (30) different mice (5 mg oligopeptide / kg body mass intravenously), after which, the mortality of the mice was determined for each oligopeptide as well as was the BUN concentration at two hours, 24 hours and 72 hours. The results are shown in Table 3 below (excluding the results of peptide A (LAGV (SEQ ID NO:121)) obtained in Example 3).
Under inhalation anesthesia, the left kidney with its artery and vein was isolated and occluded for 25 minutes using a microvascular clamp. During surgery, animals were placed on a heating pad to maintain body temperature at 37° C. Five minutes before placing the clamp, and five minutes before releasing the clamp, 5 mg/kg of peptide dissolved in 0.1 mL of sterile saline, was administered intravenously. After reperfusion of the left kidney, the right kidney was removed. Kidney function was assessed by measuring blood urea nitrogen before clamping, and at 2, 24, and 72 hours after reperfusion.
Peptides were tested at 0.3, 1, 3, 10 and 30 mg/kg dosages given as described in Example 3. P values (calculated by Mann Whitney U-test (SPSS for Windows)) of serum urea levels of PBS compared to peptide D groups at 72 hours post-clamping were at 0.3 mg/kg 0.001, at 1 mg/kg 0.009, at 3 mg/kg 0.02, at 10 mg/kg 0.000, and at 30 mg/kg 0.23; for peptide B (SEQ ID NO:120) groups, these P-values were 0.88, 0.054, 0.000, 0.001 and 0.003.

[2] = tested on: high dose LPS (E. coli 026:B6)-induced septic shock in BALB/c mice; experiment: high dose LPS-induced septic shock, peptide administered twice; settings: peptide twice (t = 2 and 24 hours) 5 mg/kg
Experimental: (§1) Mice used in sepsis or septic shock experiments: Female BALB/c mice of eight to twelve weeks of age were used for all experiments. The animals were bred in our facility under specific pathogen-free conditions according to the protocols described in the […] of European Laboratory Animal Science Associations (FELASA) Working group on Animal Health (Laboratory Animals 28:1-24, 1994).
(§2) Injection protocols: For the endotoxin model, BALB/c mice were injected i.p. with 150-300 μg LPS (E. coli 026:B6; Difco Lab., Detroit, Mich., USA). Control groups were treated with PBS i.p. only. To test the effect of peptides, they were dissolved in PBS and injected i.p. at predetermined points in time after LPS treatment.
(§3) Mice were scored for sickness severity using the following measurement scheme: • 0 No abnormalities. • 1 Percolated fur, but no detectable behavior differences compared to normal mice. • 2 Percolated fur, huddle reflex, responds to stimuli (such as tap on cage), just as active during handling as healthy mouse. • 3 Slower response to tap on cage, passive or docile when handled, but still curious when alone in a new setting. • 4 Lack of curiosity, little or no response to stimuli, quite immobile. • 5 Labored breathing, inability or slow to self-right after being rolled onto back (moribund, sacrificed). • D Dead.
A second set of septic shock experiments were set up to determine which of the peptides LQG, LQGV (SEQ ID NO:117), VLPALP (SEQ ID NO:140), VLPALPQ (SEQ ID NO:143), MTR, MTRV (SEQ ID NO:119), VVC or AQG, AQGV (SEQ ID NO:120), LAG and LAGV (SEQ ID NO:121) were capable of inhibiting high dose LPS-induced septic shock in mice by treating mice with a double dose of peptide at two and 24 hours after LPS treatment. At each treatment, peptides were used at 5 mg/kg bodyweight. BALB/c mice were injected i.p. with high doses LPS (E. coli 026:B6; Difco Lab., Detroit, Mich. USA), predetermined to be leading to 80 to 100% mortality in 24 to 72 hours.

[3] = tested on: LPS (E. coli 026:B6)-induced septic shock in BALB/c mice; experiment: LPS-induced septic shock, single dose of peptide
Experimental: as §1, §2, §3
A first set of septic shock experiments were set up to determine which of the peptides LQG, LQGV (SEQ ID NO:117), VLPALP (SEQ ID NO:140), VLPALPQ (SEQ ID NO:143), MTR, MTRV (SEQ ID NO:119), VVC or QVVC (SEQ ID NO:118) were capable of inhibiting lipopolysaccharide (LPS)-induced septic shock in mice by treating mice with a single dose of peptide at two hours after LPS treatment. Peptides were used at 5 mg/kg bodyweight. BALB/c mice were injected i.p. with escalating doses LPS (E. coli 026:B6; Difco Lab., Detroit, Mich. USA), predetermined to be leading to 80 to 100% mortality in 24 to 72 hours.
To test the effect of peptide early in the development of shock, mice were treated at two hours or at 24 hours after treatment with varying doses of LPS by i.p. injection with test peptide at 5 mg/kg bodyweight.

[4] = 2 hours after reperfusion, 5 mg/kg i.v.
[5] = 24 hours after reperfusion, 5 mg/kg i.v.
[6] = 72 hours after reperfusion, 5 mg/kg i.v.
[7] = t = 0 hr (before clamping), 5 mg/kg i.v.
[8] = LPS dose 7**, single dose 5 mg/kg
[9] = LPS dose 7*, single dose 5 mg/kg
[10] = LPS dose 8, single dose 5 mg/kg
[11] = LPS dose 10, single dose 5 mg/kg
[12] = LPS dose 10, single dose 5 mg/kg, 5 mg/kg

## AQGV
[1]; 0.3 mg/kg, 24 hours
  Mortality in dose-response experiment: 0-9
  Urea levels in dose-response experiment: 62.4
[1]; 0.3 mg/kg, 72 hours
  Mortality in dose-response experiment: 2-10
  Urea levels in dose-response experiment: 86.7
[1]; 1.0 mg/kg, 24 hours
  Mortality in dose-response experiment: 0-10
  Urea levels in dose-response experiment: 50.0
[1]; 1.0 mg/kg, 72 hours
  Mortality in dose-response experiment: 1-8
  Urea levels in dose-response experiment: 52.6
[1]; 3.0 mg/kg, 24 hours
  Mortality in dose-response experiment: 1-10
  Urea levels in dose-response experiment: 37.4
[1]; 3.0 mg/kg, 72 hours
  Mortality in dose-response experiment: 0-10
  Urea levels in dose-response experiment: 19.6
[1]; 5 mg/kg i.v.
  BUN concentration versus the PBS control group (in words): reduced BUN concentration
  mortality versus the PBS control group (in words): significant reduction in mortality
[1]
  mortality at 72 hours post-reperfusion: 0/10
[1]; 10.0 mg/kg, 24 hours
  Mortality in dose-response experiment: 0-10
  Urea levels in dose-response experiment: 41.2
[1]; 10.0 mg/kg, 72 hours
  Mortality in dose-response experiment: 0-8
  Urea levels in dose-response experiment: 37.1
[1]; 30.0 mg/kg, 24 hours
  Mortality in dose-response experiment: 0-8
  Urea levels in dose-response experiment: 47.8
[1]; 30.0 mg/kg, 72 hours
  Mortality in dose-response experiment: 3-10
  Urea levels in dose-response experiment: 38.0
[1]; [4]
  BUN after 25 minutes renal ischemia, mean: 16.62
[1]; [5]
  BUN after 25 minutes renal ischemia, mean: 26.36
[1]; [6]
  BUN after 25 minutes renal ischemia, mean: 22.31
[1]; [7]
  BUN after 25 minutes renal ischemia, mean: 9.713
[2]; LPS dose 10.5
  mice with sickness score 1, effect at t = 24 hours: 2
  mice with sickness score 1, effect at t = 48 hours: 5
  mice with sickness score 2, effect at t = 24 hours: 3
[2]; LPS dose 11
  mice with sickness score 1, effect at t = 24 hours: 2
  mice with sickness score 1, effect at t = 48 hours: 6
  mice with sickness score 2, effect at t = 24 hours: 4

## LAGV (tetramer peptide)
[1]; 5 mg/kg i.v.
  BUN concentration versus the PBS control group (in words): reduced BUN concentration
  mortality versus the PBS control group (in words): significant reduction in mortality
[1]
  mortality at 72 hours post-reperfusion: 6/10
[1]; [4]
  BUN after 25 minutes renal ischemia, mean: 14.03
[1]; [5]
  BUN after 25 minutes renal ischemia, mean: 38.86
[1]; [6]
  BUN after 25 minutes renal ischemia, mean: 32.8875
[1]; [7]
  BUN after 25 minutes renal ischemia, mean: 8.167
[2]; LPS dose 10.5
  mice scored D (dead), effect at t = 48 hours: 4
  mice with sickness score 3, effect at t = 24 hours: 1
  mice with sickness score 3, effect at t = 48 hours: 1
  mice with sickness score 5, effect at t = 24 hours: 4
[2]; LPS dose 11
  mice scored D (dead), effect at t = 24 hours: 1
  mice scored D (dead), effect at t = 48 hours: 4
  mice with sickness score 3, effect at t = 24 hours: 1
  mice with sickness score 3, effect at t = 48 hours: 2
  mice with sickness score 4, effect at t = 24 hours: 1
  mice with sickness score 5, effect at t = 24 hours: 3

## LQG
[1]; [4]
  BUN after 25 minutes renal ischemia, mean: 16.75
[1]; [5]
  BUN after 25 minutes renal ischemia, mean: 26.74
[1]; [6]
  BUN after 25 minutes renal ischemia, mean: 83.96
[1]; at 24 hours post-reperfusion, 5 mg/kg i.v.
  BUN concentration versus PBS (in words): reduced BUN concentration
[1]; [7]
  BUN after 25 minutes renal ischemia, mean: 7.821
[3]; [8]
  mice scored D (dead), effect at t = 24 hours: 1
  mice scored D (dead), effect at t = 48 hours: 5
  mice with sickness score 4, effect at t = 24 hours: 3
  mice with sickness score 4, effect at t = 48 hours: 1
  mice with sickness score 5, effect at t = 24 hours: 2
[3]; [9]
  mice scored D (dead), effect at t = 48 hours: 4
  mice with sickness score 4, effect at t = 24 hours: 3
  mice with sickness score 5, effect at t = 24 hours: 3
  mice with sickness score 5, effect at t = 48 hours: 2
[3]; [10]
  mice scored D (dead), effect at t = 24 hours: 1
  mice scored D (dead), effect at t = 48 hours: 6
  mice with sickness score 2, effect at t = 24 hours: 2
  mice with sickness score 3, effect at t = 24 hours: 1
  mice with sickness score 3, effect at t = 48 hours: 1
  mice with sickness score 4, effect at t = 48 hours: 2
  mice with sickness score 5, effect at t = 24 hours: 4
  mice with sickness score 5, effect at t = 48 hours: 3
[3]; [11]
  mice with sickness score 3, effect at t = 24 hours: 1
  mice with sickness score 4, effect at t = 24 hours: 2
  mice with sickness score 4, effect at t = 48 hours: 1
  mice with sickness score 5, effect at t = 48 hours: 2
[3]; [12]
  mice scored D (dead), effect at t = 48 hours: 4 and 3
  mice with sickness score 5, effect at t = 24 hours: 4 and 3
[2]; LPS dose 10.5
  mice scored D (dead), effect at t = 48 hours: 5
  mice with sickness score 5, effect at t = 24 hours: 5
[2]; LPS dose 11
  mice scored D (dead), effect at t = 48 hours: 6
  mice with sickness score 4, effect at t = 24 hours: 6

## LQGV
[1]; [4]
  BUN after 25 minutes renal ischemia, mean: 17.53
[1]; [5]
  BUN after 25 minutes renal ischemia, mean: 56.08
[1]; [6]
  BUN after 25 minutes renal ischemia, mean: 73.18
[1]; [7]
  BUN after 25 minutes renal ischemia, mean: 7.518
[3]; 5 mg/kg i.p.
  protective effect against LPS-induced sepsis (in words): marked protective effect
[3]; [8]
  mice with sickness score 1, effect at t = 24 hours: 6
  mice with sickness score 1, effect at t = 48 hours: 6
[3]; [9]
  mice with sickness score 1, effect at t = 24 hours: 2
  mice with sickness score 1, effect at t = 48 hours: 6
  mice with sickness score 2, effect at t = 24 hours: 4
[3]; [10]
  mice with sickness score 0, effect at t = 48 hours: 4
  mice with sickness score 1, effect at t = 24 hours: 3
  mice with sickness score 2, effect at t = 48 hours: 1
  mice with sickness score 3, effect at t = 24 hours: 1
[3]; LPS dose 8, single dose 5 mg/kg, 5 mg/kg
  mice with sickness score 2, effect at t = 24 hours: 5 and 3
[3]; [11]
  mice scored D (dead), effect at t = 48 hours: 1
  mice with sickness score 1, effect at t = 24 hours: 2
  mice with sickness score 2, effect at t = 48 hours: 1
  mice with sickness score 3, effect at t = 24 hours: 1
  mice with sickness score 4, effect at t = 24 hours: 1
[3]; [12]
  mice with sickness score 1, effect at t = 48 hours: 6 and 4
[2]; LPS dose 10.5
  mice scored D (dead), effect at t = 48 hours: 5
  mice with sickness score 5, effect at t = 24 hours: 5
[2]; LPS dose 11
  mice scored D (dead), effect at t = 48 hours: 4
  mice with sickness score 4, effect at t = 24 hours: 2
  mice with sickness score 4, effect at t = 48 hours: 2
  mice with sickness score 5, effect at t = 24 hours: 4
